The target in one assay is JAK2 (Homo sapiens, UniProt O60674). Conditions: cited from earlier work.
In another assay the test system is PI3K isoforms. Particulars: cited from earlier work.
Assay [1] deals with T1, mTOR (Homo sapiens, UniProt P42345+P62942).
T1 construct: endogenous in cells; host or cells: HT-1080 cell line
Conditions: cited from earlier work.

The next assay relates to majority of kinases. Conditions: tested at 1 μM; cited from earlier work.
Another assay relates to PKC (Rat brain). Particulars: cited from earlier work.
A further assay addresses JAK1 (Homo sapiens, UniProt P23458). Conditions: cited from earlier work.
The next assay deals with RET (Homo sapiens, UniProt P07949). Particulars: cell-free assays; cited from earlier work.
The target of the next assay is T2, Flt3 (Homo sapiens, UniProt P36888).
T2 sequence (P36888 27-993): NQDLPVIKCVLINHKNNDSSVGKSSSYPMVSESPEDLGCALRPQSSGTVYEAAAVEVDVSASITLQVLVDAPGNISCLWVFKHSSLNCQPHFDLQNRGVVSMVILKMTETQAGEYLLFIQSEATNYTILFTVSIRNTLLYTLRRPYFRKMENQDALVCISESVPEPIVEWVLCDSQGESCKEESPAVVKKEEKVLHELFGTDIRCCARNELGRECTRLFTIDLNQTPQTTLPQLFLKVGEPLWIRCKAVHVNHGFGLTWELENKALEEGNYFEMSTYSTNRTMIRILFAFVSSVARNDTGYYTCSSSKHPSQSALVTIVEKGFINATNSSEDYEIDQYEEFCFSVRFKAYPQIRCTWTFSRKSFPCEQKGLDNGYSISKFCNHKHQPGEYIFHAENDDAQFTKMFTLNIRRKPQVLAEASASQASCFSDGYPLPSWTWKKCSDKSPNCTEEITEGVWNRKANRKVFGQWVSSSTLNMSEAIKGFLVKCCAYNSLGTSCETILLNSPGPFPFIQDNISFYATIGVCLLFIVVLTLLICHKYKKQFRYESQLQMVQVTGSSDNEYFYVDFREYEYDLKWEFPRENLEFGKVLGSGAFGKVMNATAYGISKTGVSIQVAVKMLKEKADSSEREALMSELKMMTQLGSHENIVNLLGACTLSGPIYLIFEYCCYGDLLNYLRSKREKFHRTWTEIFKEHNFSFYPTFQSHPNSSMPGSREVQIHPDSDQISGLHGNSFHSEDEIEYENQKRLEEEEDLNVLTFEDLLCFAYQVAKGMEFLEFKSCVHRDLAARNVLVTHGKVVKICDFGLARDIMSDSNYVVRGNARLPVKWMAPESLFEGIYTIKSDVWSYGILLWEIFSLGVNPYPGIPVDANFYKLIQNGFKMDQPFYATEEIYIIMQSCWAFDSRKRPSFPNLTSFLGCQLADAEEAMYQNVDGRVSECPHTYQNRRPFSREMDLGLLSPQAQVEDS
Particulars: cell-free assays; cited from earlier work.

The target in the next assay is T3, JAK3 (Homo sapiens, UniProt P52333).
T3 sequence (P52333 1-1124): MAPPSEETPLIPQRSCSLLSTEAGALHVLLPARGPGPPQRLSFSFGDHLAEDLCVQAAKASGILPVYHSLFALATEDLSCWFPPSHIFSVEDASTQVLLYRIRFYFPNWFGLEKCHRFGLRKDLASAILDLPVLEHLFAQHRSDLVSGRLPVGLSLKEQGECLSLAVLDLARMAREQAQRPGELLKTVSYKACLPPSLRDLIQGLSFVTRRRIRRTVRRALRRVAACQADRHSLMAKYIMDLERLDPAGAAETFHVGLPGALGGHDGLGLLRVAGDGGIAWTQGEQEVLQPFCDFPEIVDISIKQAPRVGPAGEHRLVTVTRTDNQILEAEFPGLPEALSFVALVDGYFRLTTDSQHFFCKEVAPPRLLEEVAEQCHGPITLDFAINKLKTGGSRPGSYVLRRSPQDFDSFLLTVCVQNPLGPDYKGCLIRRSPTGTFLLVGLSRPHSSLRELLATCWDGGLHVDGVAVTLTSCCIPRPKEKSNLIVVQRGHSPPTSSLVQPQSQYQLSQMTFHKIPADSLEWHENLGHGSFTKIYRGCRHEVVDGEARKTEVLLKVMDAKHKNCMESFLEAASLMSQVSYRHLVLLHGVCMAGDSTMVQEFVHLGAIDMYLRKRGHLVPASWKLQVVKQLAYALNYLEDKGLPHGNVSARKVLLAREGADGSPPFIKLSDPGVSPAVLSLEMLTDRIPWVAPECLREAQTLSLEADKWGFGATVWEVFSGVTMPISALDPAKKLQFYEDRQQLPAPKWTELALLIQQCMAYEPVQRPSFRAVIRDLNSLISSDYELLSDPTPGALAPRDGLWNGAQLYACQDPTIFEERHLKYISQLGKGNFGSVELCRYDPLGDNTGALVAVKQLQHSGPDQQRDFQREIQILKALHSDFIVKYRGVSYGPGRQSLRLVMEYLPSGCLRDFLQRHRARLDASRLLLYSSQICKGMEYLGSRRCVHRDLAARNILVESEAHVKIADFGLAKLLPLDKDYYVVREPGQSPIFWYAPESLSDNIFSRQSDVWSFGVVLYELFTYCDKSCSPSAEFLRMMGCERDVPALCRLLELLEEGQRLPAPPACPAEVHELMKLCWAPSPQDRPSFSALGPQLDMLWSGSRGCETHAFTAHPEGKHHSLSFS
Conditions: cited from earlier work.

In a further assay the target is TYK2 (Homo sapiens, UniProt P29597). Particulars: cited from earlier work.
Assay [2] relates to panel of 38 non-JAK kinases. Conditions: cited from earlier work.
A further assay deals with STAT3. Conditions: HEL cells; cited from earlier work.
The test system of assay [3] is UBC-Cre-Clec16a^loxP KO mice. The assay is described as follows: Tofacitinib treatment of Clec16a KO mice: fat, weight, survival. The format is in vivo.
In assay [4] the test system is HSL, STATs, AMPK, mTOR, P62, LC3I/II and SOCS-1 expression. Put plainly: Immunoblot analysis on gWAT from control, KO and Tofacitinib treated mice. It is filed as in vivo. The source says:
To examine the signaling mechanism underlying the rescue, we performed immunoblot analysis on gWAT isolated from control, KO and Tofacitinib treated mice. We evaluated HSL, STATs, AMPK, mTOR, P62, LC3I/II and SOCS-1 expression (FIG. 10C). […]. […]. Over-activation of mTOR indicates inhibition of autophagy/lipophagy as evident by significant accumulation of P62 in CLEC16A KO mice. […].
For orientation: In western blotting, separated proteins are transferred to a membrane and probed.

Assay [5] has as its system cytokines and chemokine from plasma of Clec16a KO mice. Put plainly: Plasma cytokines and chemokines, Mouse Cytokine Array panel. It is filed as in vivo. The text has this: FIG. 11. […]. The representative graph is quantification of cytokines and chemokine from plasma of Control (Vehicle), KO and KO+Tofacitinib inhibitor treated mice using the Mouse Cytokine Array panel.
To gain insight in the inflammatory mechanism involved in the development, progression and pathogenesis of various autoimmune diseases, we profiled plasma from control, KO and […] KO mice for cytokines and chemokine using Mouse Cytokine Array panel.

For assay [6], the system named is Vps34, AKT, PDK1, p70S6K, MEK, ERK, p38, or JNK. Particulars: cited from earlier work.
The next assay concerns 19 other tested kinases. Conditions: cited from earlier work.
Assay [7] concerns the target mTOR (Homo sapiens, UniProt P42345). Particulars: cited from earlier work.
[8] abbreviates: gWAT immunoblot, CLEC16A KO mice.

Where a name gives a salt, the structure may show the parent alone.

Sequence of JAK1 (P23458 whole entry, species assumed): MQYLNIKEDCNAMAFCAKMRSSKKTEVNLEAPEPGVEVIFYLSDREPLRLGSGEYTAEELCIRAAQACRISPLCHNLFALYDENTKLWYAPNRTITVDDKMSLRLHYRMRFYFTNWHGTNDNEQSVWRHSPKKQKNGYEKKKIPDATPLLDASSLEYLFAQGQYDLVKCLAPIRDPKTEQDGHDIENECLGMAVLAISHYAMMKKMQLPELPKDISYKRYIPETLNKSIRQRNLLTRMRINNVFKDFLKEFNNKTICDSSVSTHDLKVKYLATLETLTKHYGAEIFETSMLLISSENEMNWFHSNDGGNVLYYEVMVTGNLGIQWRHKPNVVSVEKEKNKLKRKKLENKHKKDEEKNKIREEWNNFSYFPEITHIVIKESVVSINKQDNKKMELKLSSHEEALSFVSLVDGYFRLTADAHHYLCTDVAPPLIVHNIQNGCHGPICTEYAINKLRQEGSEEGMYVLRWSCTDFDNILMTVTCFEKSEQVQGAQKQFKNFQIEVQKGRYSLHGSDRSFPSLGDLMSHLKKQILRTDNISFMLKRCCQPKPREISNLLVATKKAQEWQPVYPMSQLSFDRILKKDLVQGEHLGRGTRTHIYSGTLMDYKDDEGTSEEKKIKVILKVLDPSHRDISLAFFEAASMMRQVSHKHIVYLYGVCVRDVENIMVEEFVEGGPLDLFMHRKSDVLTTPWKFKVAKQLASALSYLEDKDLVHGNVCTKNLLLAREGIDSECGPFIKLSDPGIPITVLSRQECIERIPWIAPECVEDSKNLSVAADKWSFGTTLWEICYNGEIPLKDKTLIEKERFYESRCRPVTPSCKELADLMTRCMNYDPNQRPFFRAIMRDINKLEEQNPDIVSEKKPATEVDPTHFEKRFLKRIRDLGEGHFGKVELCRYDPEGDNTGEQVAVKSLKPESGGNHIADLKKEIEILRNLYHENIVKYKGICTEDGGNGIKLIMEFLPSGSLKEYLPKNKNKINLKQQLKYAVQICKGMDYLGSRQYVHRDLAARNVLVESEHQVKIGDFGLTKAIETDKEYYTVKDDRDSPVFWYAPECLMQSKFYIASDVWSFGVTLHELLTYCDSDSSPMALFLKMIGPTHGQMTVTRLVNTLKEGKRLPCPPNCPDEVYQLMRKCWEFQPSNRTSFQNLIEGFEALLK
Sequence of TYK2 (P29597 whole entry): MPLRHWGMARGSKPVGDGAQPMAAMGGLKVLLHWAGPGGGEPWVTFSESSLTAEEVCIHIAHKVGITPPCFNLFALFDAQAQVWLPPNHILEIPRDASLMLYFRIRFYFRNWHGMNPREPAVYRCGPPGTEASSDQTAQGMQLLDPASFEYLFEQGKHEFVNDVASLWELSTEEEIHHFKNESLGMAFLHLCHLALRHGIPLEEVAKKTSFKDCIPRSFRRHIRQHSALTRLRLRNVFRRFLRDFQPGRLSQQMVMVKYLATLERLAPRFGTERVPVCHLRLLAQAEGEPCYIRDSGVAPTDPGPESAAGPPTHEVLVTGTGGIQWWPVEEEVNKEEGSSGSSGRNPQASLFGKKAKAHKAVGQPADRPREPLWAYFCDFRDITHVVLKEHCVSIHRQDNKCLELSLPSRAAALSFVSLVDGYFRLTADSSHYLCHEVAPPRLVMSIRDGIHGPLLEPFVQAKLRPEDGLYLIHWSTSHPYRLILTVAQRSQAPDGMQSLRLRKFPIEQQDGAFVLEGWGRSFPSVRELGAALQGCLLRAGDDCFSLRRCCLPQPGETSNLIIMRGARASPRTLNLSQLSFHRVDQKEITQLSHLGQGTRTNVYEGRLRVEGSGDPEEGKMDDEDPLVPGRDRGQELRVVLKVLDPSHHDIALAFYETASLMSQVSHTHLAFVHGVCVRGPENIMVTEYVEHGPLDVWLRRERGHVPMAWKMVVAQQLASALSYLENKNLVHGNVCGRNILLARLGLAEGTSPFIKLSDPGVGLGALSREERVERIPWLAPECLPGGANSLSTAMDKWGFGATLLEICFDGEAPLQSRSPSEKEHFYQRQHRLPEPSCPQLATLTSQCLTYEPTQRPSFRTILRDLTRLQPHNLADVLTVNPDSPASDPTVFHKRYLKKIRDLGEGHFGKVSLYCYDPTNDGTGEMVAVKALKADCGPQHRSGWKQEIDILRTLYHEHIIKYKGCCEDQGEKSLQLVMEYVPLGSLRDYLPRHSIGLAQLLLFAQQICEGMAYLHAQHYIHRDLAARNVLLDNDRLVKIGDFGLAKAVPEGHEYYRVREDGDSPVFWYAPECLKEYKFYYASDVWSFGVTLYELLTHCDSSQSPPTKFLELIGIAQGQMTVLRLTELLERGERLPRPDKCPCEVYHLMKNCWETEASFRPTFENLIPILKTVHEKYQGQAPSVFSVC
Sequence of JAK2 (O60674 whole entry, species assumed, canonical isoform): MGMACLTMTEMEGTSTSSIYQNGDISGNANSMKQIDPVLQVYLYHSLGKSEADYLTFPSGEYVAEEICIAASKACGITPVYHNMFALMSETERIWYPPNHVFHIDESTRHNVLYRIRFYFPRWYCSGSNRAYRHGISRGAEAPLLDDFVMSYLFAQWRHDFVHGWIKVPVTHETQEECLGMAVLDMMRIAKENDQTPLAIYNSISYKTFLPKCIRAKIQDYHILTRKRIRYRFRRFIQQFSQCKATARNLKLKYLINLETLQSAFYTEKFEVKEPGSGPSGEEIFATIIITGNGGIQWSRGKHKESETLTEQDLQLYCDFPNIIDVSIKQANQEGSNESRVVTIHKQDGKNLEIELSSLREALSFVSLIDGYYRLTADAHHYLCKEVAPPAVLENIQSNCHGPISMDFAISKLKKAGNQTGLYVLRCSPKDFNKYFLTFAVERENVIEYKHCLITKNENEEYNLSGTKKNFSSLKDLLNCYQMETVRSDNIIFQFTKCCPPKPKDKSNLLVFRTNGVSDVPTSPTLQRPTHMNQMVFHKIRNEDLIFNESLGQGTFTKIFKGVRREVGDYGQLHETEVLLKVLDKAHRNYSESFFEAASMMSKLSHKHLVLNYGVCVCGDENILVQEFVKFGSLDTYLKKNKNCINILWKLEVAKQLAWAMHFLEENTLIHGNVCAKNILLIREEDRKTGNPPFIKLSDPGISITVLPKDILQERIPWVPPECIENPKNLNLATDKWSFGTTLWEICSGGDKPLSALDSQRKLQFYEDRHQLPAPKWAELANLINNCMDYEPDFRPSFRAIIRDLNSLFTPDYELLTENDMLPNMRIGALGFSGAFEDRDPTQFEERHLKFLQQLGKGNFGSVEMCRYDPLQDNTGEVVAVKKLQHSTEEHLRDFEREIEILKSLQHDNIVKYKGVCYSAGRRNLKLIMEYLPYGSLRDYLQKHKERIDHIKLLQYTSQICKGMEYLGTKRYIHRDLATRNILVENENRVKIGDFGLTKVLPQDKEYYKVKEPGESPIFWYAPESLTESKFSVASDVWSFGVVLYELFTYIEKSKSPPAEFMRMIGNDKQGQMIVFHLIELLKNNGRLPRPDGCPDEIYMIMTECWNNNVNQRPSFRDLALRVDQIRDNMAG
T1 sequence (Q9BVC4 whole entry): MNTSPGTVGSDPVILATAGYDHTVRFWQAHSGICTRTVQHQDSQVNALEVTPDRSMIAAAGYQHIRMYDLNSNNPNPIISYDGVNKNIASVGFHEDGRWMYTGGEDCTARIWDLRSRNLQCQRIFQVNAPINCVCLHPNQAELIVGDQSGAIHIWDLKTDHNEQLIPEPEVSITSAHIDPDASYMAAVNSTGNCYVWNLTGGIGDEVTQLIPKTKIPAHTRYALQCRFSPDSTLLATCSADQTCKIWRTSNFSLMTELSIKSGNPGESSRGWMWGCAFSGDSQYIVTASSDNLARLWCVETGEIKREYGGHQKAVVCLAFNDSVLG
T1 sequence (P62942 2-108): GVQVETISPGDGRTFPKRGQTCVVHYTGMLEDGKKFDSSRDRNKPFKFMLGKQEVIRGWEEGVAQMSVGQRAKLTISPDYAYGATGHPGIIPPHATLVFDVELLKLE
Sequence of RET (P07949 29-1114, species assumed): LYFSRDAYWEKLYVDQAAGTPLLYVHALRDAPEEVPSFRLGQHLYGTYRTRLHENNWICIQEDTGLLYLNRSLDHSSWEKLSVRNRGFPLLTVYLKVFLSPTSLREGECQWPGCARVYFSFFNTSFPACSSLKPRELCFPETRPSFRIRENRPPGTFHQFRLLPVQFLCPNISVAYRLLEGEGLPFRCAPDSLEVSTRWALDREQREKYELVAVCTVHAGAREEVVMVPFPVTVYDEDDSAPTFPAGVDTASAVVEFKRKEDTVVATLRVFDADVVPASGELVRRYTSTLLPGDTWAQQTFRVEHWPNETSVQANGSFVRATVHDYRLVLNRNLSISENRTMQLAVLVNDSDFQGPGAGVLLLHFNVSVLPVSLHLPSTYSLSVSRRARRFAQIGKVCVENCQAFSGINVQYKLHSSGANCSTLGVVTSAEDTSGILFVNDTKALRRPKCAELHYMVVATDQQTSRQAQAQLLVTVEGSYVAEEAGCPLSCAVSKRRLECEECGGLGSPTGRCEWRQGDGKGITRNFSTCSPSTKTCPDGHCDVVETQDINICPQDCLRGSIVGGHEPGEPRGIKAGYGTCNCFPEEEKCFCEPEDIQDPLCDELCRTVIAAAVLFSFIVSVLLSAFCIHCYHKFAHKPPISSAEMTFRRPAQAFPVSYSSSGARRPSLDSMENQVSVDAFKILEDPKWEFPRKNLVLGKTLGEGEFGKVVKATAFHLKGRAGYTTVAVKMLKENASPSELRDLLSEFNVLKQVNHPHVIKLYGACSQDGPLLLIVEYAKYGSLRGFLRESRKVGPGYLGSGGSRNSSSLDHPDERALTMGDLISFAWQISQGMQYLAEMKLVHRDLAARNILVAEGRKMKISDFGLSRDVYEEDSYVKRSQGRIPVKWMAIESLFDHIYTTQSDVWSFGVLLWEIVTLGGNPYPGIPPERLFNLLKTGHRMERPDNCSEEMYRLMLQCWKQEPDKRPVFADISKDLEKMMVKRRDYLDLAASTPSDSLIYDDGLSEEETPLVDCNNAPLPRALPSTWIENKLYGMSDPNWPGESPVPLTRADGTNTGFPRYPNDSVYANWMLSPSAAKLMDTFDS

Regarding `CC(C)N(CCC(=O)c1ccc2ccccc2c1)Cc1ccccc1` [ZM 39923 HCl], the “activity against JAK2” value on JAK2 was “almost no activity”.
As to `COc1ccc(-c2ccc3c(N4CCOCC4)nc(N4C[C@@H](C)O[C@@H](C)C4)nc3n2)cc1CO` [KU-0063794], the “effect on PI3Ks” value with PI3K isoforms was “no effect”.
For orientation: IC50 means the point on the concentration scale where inhibition reaches its midpoint. For the compound `CO[C@H]1C[C@@H]2CC[C@@H](C)[C@@](O)(O2)C(=O)C(=O)N2CCCC[C@H]2C(=O)O[C@H]([C@H](C)C[C@@H]2CC[C@@H](OP(C)(C)=O)[C@H](OC)C2)CC(=O)[C@H](C)/C=C(\C)[C@@H](O)[C@@H](OC)C(=O)[C@H](C)C[C@H](C)/C=C/C=C/C=C/1C` [Ridaforolimus], on mTOR [1], the IC50 is 0.0002 µM.
Consider `CNC(=O)c1cccc(-c2ccc3c(N4CCOC[C@@H]4C)nc(N4CCOC[C@@H]4C)nc3n2)c1` [Vistusertib], for which the “binding to the majority of kinases” value in the assay on majority of kinases is listed as “no or weak binding”.
Regarding `Cn1c2ccccc2c2c3c(c4c5ccccc5n(CCC#N)c4c21)CNC3=O` [Go6976], in the assay with PKC (Rat brain), the concentration for half-maximal inhibition (IC50) was 0.0079 µM.
`COc1cc2ncnc(Nc3ccc(O)c(Br)c3)c2cc1OC` [WHI-P154]: the “activity against JAK1” value on JAK1 is listed as “no activity”. The “activity against JAK2” value at JAK2 is “no activity”.
Take `Cc1cnc(Nc2ccc(N3CCN(C)CC3)cc2)nc1Nc1cccc(S(=O)(=O)NC(C)(C)C)c1` [TG101209]: the concentration for half-maximal inhibition (IC50) at RET was 0.017 µM; on Flt3 it was 0.025 µM.
As to `CCn1c(C(=O)N(C2CC2)C2CC2)cc2c3c(ncn3C)c(Nc3cc(C)n(C)n3)nc21` [BMS-911543], the “selectivity for JAK2 versus JAK3” value on JAK3 was 75 fold. Also, the “selectivity for JAK2 versus JAK1” value on JAK1 is roughly 350 fold. In addition, the “selectivity for JAK2 versus TYK2” value on TYK2 is on record as 65 fold.
In the case of `CNS(=O)(=O)C[C@H]1CC[C@H](N(C)c2ncnc3[nH]ccc23)CC1` [Oclacitinib], the “inhibition of a panel of 38 non-JAK kinases” value in assay [2] is reported as “does not inhibit”.
For the compound `C[C@H](NC(=O)/C(C#N)=C/c1cccc(Br)n1)c1ccccc1` [WP1066], in the assay with STAT3, the IC50 is 2.43 µM.
Regarding `CN1CCN(c2cccc(Nc3nc4c(-c5ccc(S(C)(=O)=O)cc5)cccn4n3)c2)CC1` [CEP33779], on JAK1, the “selectivity for JAK2 versus JAK1” value is greater than 40 fold. Besides, on JAK2, the IC50 is 0.0018 µM. The “selectivity for JAK2 versus TYK2” value on TYK2 was greater than 800 fold.
`C[C@@H]1CCN(C(=O)CC#N)C[C@@H]1N(C)c1ncnc2[nH]ccc12` [Tofacitinib]: the “lipodystrophic (inflammatory) phenotype” value in assay [3] is recorded as “partially rescues”. Besides, in assay [3] (Tofacitinib treatment), the “fat and weight loss” value is “significantly rescued”; the survival entry is “improves”. For the same compound, the autophagy/lipophagy defect entry in [4] (gWAT immunoblot (P62), CLEC16A KO mice) is “rescues”. In addition, in [4] (setting [8]), the SOCS1 expression result is reported as “significantly reversed”; the “p-STAT1 and p-STAT3” value is “downregulating the p-STAT1 and p-STAT3 to normal levels comparable to control”; the “phosphorylation of ACC” value was “promoted”; the “phosphorylation of mTOR” value is “reversal”. Moreover, the “upregulated p-AMPK” value in assay [4] (setting [8]) is recorded as “significantly reduced”. Besides, the “phospho-HSL (p-HSL)” value in assay [4] (gWAT immunoblot, CLEC16A KO+Tofacitinib mice) is on record as “significant reversal”. The “CLEC16A knockout inflammatory phenotype (cytokines/chemokine levels)” value in [5] (plasma, KO+Tofacitinib treated mice, FIG. 11) was “attenuated”.
For `COc1ccc(-c2cc3c(C)nc(N)nc3n([C@H]3CC[C@H](OCCO)CC3)c2=O)cn1` [PF-04691502], the “activity against Vps34, AKT, PDK1, p70S6K, MEK, ERK, p38, or JNK” value in [6] is “little activity”.
In the case of `CCS(=O)(=O)N1CCN(c2ccc(Nc3ncc(C(N)=O)c(NC4CC4)n3)cc2)CC1` [Cerdulatinib], in the assay with 19 other tested kinases, the IC50 was less than 0.2 µM.
For the compound `N#Cc1ccc(COc2ccc(-c3cccc4nc(NC(=O)C5CC5)nn34)cc2)cn1` [GLPG0634 analogue], the IC50 is 0.81 µM at JAK3, 0.01 µM on JAK1, 0.028 µM at JAK2 and 0.116 µM at TYK2.
Turning to `N#CC(=C(/N)Sc1ccccc1N)/C(C#N)=C(\N)Sc1ccccc1N` [U0126], the “up regulated cytokines and chemokines” value in assay [5] (plasma of U0126-treated KO mice) is “reversed”.
Consider `Cc1cc(Nc2nc(N[C@@H](C)c3ccc(F)cc3)c(C#N)cc2F)n[nH]1` [AZ 960], for which, on JAK3, the “selectivity for JAK2 versus JAK3” value is on record as 3 fold. The IC50 at JAK2 was less than 0.003 µM.
As for `CO[C@H]1C[C@@H]2CC[C@@H](C)[C@@](O)(O2)C(=O)C(=O)N2CCCC[C@H]2C(=O)O[C@H]([C@H](C)C[C@@H]2CC[C@@H](OCCO)[C@H](OC)C2)CC(=O)[C@H](C)/C=C(\C)[C@@H](O)[C@@H](OC)C(=O)[C@H](C)C[C@H](C)/C=C/C=C/C=C/1C` [Everolimus], on mTOR [7], the IC50 is 0.0016 to 0.0024 µM.

(Values after patent publication US20230304018A1, “COMPOSITIONS AND METHODS FOR ENHANCING WEIGHT LOSS” (The Children's Hospital of Philadelphia, priority 2017, published 2023).)
